From US20260240762A1, “COMPOUND AND FORMULATION FOR SYSTEMIC THERAPY BY ORAL TRANSMUCOSAL ADMINISTRATION” (CUROVIR AB, priority 2023, published 2026)

Tests used:
Format in all cases: biochemical
PI4K2A = PI4K2A (Homo sapiens, UniProt Q9BTU6); test: PI4 kinase inhibition, ADP-Glo Kinase assay; conditions: 60 min, 10 μM ATP, not tested at concentration higher than 10 μM
Description: (§1) Inhibition of PI4 kinases was performed with the ADP-Glo™ Kinase assay which measures the ADP formed from a kinase reaction, where ADP is converted into ATP and then converted into light by Ultra-Glo™ Luciferase. Reactions were carried out for 60 min at 10 μM ATP. The luminescent signal produced in reaction is proportional to the kinase activity.

PI4KB = PI4KB (Homo sapiens, UniProt Q9UBF8); test: PI4 kinase inhibition, ADP-Glo Kinase assay; conditions: 60 min, 10 μM ATP
Description: as §1

PI4K2B = PI4K2B (Homo sapiens, UniProt Q8TCG2); test: PI4 kinase inhibition, ADP-Glo Kinase assay; conditions: 60 min, 10 μM ATP, not tested at concentration higher than 10 μM
Description: as §1

PI4KA = PI4KA (Homo sapiens, UniProt P42356); test: PI4 kinase inhibition, ADP-Glo Kinase assay; conditions: 60 min, 10 μM ATP
Description: as §1

PI3KB (p110b/p85a) = PI3KB (p110b/p85a) (Homo sapiens, UniProt P42338); test: PI3 kinase inhibition, HTRF assay
Excerpt: (§2) Inhibition of PI3 kinases was studied using the HTRF (homogeneous time-resolved fluorescence) assay which is a universal method for identifying and characterizing the phosphotransferase activity induced by any ATP/ADP dependent target. The formation of ADP was detected by a specific monoclonal antibody labeled with Eu^3+ cryptate; the amount of ADP formed directly correlates with the amount of phosphorylated substrate in kinase assays.

PI3K (p120g) = PI3K (p120g) (Homo sapiens, UniProt P48736); test: PI3 kinase inhibition, HTRF assay; conditions: not tested at concentration higher than 1 μM
Excerpt: as §2

PI3KA (p110a/p85a) = PI3KA (p110a/p85a) (Homo sapiens, UniProt P42336); test: PI3 kinase inhibition, HTRF assay
Excerpt: as §2

Chain of PI4KB (Q9UBF8 whole entry, species assumed): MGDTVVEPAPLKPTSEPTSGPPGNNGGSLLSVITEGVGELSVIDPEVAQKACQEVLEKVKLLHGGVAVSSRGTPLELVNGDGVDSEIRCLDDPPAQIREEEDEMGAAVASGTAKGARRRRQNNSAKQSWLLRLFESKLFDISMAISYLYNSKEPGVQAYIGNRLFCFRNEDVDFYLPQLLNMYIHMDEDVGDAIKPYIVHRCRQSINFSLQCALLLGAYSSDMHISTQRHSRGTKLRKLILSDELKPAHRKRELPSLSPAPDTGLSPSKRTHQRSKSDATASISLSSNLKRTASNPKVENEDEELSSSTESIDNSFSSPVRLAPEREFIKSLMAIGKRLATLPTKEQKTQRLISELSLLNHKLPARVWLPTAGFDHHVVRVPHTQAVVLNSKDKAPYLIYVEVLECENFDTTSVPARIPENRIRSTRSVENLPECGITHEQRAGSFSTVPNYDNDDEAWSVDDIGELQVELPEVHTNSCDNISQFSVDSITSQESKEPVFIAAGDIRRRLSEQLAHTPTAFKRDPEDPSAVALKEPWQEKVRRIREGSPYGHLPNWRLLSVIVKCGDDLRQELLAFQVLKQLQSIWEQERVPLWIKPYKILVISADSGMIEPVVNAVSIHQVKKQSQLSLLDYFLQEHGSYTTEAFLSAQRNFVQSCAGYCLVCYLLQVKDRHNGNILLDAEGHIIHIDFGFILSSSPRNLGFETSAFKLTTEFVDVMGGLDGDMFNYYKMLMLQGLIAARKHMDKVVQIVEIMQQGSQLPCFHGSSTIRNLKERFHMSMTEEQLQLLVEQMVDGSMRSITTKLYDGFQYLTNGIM
Chain of PI4K2A (Q9BTU6 whole entry, species assumed): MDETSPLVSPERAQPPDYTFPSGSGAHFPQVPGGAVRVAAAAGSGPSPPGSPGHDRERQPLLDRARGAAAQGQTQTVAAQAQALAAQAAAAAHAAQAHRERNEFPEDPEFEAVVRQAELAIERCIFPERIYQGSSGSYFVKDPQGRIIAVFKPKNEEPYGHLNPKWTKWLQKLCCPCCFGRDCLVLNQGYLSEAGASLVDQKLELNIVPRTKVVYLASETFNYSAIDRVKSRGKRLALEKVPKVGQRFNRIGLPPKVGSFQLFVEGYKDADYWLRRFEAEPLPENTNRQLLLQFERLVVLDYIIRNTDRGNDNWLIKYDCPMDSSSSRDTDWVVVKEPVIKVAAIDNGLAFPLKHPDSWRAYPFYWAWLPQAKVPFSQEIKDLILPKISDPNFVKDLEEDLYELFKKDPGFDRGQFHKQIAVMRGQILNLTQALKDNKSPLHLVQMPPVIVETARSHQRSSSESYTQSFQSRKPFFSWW
Chain of PI3KB (p110b/p85a) (P42338 whole entry): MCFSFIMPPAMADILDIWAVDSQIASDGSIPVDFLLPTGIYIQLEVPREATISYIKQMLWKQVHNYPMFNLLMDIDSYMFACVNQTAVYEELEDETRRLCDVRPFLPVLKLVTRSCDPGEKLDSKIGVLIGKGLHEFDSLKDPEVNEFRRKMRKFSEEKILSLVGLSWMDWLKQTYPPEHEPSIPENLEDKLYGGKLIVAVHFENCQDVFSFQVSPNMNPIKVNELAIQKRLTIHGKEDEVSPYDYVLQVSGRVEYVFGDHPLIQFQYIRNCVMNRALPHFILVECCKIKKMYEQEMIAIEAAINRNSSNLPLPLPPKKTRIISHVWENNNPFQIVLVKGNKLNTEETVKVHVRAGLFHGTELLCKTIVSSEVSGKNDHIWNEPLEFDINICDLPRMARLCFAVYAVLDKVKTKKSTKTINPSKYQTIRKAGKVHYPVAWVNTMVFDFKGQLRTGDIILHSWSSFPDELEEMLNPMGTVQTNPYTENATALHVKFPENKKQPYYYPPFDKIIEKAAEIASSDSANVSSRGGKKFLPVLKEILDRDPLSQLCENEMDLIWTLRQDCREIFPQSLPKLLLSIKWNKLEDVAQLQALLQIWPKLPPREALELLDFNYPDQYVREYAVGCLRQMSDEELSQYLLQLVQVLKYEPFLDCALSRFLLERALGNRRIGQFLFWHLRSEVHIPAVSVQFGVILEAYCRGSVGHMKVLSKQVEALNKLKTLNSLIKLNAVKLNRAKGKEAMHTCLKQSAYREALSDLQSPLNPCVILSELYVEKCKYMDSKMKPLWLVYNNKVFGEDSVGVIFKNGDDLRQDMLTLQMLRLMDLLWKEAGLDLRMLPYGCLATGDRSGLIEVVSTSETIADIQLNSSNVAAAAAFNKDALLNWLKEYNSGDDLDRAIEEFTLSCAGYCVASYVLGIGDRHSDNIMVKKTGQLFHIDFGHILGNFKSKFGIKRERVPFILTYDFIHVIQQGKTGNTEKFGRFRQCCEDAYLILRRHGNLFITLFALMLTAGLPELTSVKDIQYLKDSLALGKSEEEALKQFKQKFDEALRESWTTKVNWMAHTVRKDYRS
Chain of PI3KB (p110b/p85a) (P27986 whole entry partner): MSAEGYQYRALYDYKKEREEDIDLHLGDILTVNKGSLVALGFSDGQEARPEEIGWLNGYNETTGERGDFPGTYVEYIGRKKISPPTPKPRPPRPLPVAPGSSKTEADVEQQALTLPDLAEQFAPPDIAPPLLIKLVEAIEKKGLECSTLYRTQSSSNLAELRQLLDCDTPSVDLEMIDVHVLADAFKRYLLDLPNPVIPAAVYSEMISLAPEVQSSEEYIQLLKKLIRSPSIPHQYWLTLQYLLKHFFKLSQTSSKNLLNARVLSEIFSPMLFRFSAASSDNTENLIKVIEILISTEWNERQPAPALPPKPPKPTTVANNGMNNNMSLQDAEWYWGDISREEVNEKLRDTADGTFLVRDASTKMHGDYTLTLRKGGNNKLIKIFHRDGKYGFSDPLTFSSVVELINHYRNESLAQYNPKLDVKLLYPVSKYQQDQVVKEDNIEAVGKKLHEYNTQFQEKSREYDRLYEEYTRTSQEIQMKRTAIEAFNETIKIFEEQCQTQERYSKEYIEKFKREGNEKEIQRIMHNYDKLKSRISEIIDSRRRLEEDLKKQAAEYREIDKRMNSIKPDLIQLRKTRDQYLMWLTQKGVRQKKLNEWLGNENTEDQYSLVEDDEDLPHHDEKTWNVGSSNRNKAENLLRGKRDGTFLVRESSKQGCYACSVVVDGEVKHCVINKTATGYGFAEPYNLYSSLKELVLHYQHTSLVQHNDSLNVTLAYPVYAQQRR
Chain of PI3K (p120g) (P48736 whole entry): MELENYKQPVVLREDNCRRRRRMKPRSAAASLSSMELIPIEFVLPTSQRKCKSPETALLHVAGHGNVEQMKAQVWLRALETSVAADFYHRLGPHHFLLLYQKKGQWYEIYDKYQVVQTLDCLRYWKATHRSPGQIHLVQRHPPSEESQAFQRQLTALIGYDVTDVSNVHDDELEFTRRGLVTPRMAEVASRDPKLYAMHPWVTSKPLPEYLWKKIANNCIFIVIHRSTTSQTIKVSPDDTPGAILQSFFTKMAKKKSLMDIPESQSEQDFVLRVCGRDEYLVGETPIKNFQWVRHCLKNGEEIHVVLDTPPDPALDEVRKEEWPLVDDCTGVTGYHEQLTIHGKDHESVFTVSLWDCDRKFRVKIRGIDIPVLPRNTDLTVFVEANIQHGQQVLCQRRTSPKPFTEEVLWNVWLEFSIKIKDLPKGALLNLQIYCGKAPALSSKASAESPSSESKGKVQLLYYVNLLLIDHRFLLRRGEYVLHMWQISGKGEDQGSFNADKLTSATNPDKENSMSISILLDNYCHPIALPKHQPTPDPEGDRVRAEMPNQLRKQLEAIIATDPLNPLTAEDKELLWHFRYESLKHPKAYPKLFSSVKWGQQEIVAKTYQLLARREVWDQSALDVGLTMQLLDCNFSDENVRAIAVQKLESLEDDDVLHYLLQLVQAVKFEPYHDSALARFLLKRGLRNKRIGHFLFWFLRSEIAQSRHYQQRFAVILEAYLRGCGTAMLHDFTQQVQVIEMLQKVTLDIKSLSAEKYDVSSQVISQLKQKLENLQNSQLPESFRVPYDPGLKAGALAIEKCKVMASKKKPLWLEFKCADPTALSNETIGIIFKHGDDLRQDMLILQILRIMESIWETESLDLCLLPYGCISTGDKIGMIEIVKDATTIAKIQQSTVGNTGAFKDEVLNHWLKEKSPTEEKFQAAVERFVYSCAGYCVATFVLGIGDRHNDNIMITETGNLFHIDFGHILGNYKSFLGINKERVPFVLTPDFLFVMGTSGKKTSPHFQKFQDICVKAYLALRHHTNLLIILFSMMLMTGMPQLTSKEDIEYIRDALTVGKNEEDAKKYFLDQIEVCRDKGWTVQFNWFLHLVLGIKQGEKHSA
Chain of PI4K2B (Q8TCG2 whole entry, species assumed): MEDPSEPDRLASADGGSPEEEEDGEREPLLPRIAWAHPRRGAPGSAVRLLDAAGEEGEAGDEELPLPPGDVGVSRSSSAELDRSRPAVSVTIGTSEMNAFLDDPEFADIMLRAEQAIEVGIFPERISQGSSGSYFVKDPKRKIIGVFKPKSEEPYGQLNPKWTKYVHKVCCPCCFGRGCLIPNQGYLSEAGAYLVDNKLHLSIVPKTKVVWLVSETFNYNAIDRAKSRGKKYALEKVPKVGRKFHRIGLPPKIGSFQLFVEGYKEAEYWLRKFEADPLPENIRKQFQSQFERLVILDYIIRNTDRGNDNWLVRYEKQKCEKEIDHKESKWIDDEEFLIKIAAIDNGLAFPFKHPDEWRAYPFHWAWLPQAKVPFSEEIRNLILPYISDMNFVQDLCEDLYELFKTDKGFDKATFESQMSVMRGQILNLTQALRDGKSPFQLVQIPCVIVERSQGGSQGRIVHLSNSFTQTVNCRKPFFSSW

IC50 (PI4K2A): > 10 µM | IC50 (PI4KB): 0.6 nM | IC50 (PI4K2B): > 10 µM | IC50 (PI4KA): 1100 nM | IC50 (PI3KB (p110b/p85a)): 5.4 µM | IC50 (PI3K (p120g)): > 1000 nM | IC50 (PI3KA (p110a/p85a)): 3.4 µM
SMILES: Cc1cc(CNc2cc(C)nc3c(-c4ccc5c(c4)c(C)nn5C)c(C)nn23)ccn1 [3-(1,3-dimethyl-1H-indazol-5-yl)-2,5-dimethyl-N-[(2-methylpyridin-4-yl)methyl]pyrazolo[1,5-a]pyrimidin-7-amine]
